The text below walks through data of patent US5252580A, “Indole derivatives and anti-ulcer compositions thereof” (priority 1991, dated 1993).

Molecules are shown by their SMILES.

The target of one series is T1, H^+ /K^+ ATPase (Sus scrofa, UniProt P19156).
T1 construct: prepared from the stomach of pig; from tissue; host or cells: pig stomach
Put plainly: H^+ /K^+ ATPase Inhibitory Activity Assay. It is filed as biochemical. The following applies: pig stomach enzyme, 37° C., pH 6.2; for inhibition at 10 µg/mL: 10 μg/ml. The procedure:
H^+ /K^+ ATPase Inhibitory Activity Assay
The inhibitory activity was determined in the following manner using H^+ /K^+ ATPase prepared from the stomach of pig.
H^+ /K^+ ATPase dilute solution (100 μl, 50 μg as protein) was added to PIPES-tris (pH 6.2) buffer solution (440 μl) containing 4 mM magnesium chloride and 20 mM potassium chloride. Further, 0.1% ethanol solution of nigericin (5 μl) was added. To the solution was added dimethyl sulfoxide (5 μl) and the mixture was incubated at 37° C. for 30 minutes. Then 10 mM PIPES-tris buffer solution (450 μl) containing 4 mM ATP disodium was added to initiate the reaction. 30 minutes later, 50% trichloroacetic acid (1 μl) was added to cease the reaction. The amount of phosphorus released in this reaction was determined by a color development determination at 800 nm according to D. Lebel, G. Poirier et al. method (Anal. Biochem. 85, 86-89, 1978), at which the reading of the absorbance is taken as C1. On the other hand, a similar determination was carried out in the absence of potassium chloride, at which the reading of the absorbance is taken as C2. The inhibitory activity was determined by a similar procedure as in the above reaction, but adding 5 μl of a dimethyl sulfoxide solution containing 1 to 20 mg/ml of the inhibiting substance (test compound), instead of dimethyl sulfoxide. In that case, the readings of the absorbance in the presence and absence of potassium chloride are taken as T1 and T2, respectively.
% Inhibition (I) of the inhibiting substance (test compound) is calculated by the following equation.

For series [1] the following is noted: background statement; cited from earlier work.

T1 sequence (P19156 2-1034 limits assumed): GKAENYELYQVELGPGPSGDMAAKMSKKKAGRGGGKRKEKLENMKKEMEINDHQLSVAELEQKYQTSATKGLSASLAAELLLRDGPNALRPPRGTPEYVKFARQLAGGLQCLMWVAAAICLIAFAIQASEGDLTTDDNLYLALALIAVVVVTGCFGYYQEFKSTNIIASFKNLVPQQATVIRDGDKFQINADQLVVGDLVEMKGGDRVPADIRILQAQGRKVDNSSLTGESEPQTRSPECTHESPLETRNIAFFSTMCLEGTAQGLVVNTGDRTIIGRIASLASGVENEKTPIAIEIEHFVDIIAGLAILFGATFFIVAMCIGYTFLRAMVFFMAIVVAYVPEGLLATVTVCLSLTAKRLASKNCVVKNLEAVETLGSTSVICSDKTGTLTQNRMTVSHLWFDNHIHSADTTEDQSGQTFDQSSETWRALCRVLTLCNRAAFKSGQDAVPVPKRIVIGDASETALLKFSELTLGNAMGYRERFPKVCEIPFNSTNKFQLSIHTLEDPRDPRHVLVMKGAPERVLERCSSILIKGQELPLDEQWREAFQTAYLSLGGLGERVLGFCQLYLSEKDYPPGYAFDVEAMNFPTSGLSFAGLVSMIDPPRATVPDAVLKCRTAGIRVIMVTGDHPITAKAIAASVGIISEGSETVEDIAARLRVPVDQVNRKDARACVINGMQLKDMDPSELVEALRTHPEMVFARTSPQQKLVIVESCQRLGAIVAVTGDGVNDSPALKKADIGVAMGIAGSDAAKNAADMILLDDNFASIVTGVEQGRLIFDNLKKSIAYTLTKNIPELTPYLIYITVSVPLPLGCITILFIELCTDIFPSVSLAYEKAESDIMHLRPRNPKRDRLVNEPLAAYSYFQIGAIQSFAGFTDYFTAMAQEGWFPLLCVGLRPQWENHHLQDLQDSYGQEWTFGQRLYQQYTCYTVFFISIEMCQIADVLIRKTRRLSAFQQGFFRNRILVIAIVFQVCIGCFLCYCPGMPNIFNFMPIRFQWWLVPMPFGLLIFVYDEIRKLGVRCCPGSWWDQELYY
T1 sequence (P18434 whole entry partner): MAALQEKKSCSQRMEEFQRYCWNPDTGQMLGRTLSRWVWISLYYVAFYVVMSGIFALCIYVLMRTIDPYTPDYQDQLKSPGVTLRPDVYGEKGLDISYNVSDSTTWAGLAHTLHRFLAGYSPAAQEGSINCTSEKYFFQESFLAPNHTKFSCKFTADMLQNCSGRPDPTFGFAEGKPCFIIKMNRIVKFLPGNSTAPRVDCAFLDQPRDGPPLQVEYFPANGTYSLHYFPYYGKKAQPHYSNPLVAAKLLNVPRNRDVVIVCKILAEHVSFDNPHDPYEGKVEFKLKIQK

As to `CCN1CCC2c3cc(C(O)c4c(CCN(Cc5ccccc5)Cc5ccccc5)c5ccccc5n4S(=O)(=O)c4ccc(C)cc4)ccc3N(CC)C2C1` (stereo not shown) [Example 34, 2,9-Diethyl-6-(3-(2-dibenzylaminoethyl)-1-tosyl-indole-2-yl)hydroxymethyl-1,2,3,4,4a,9a-hexahydro-pyrido[3,4-b]indole], the inhibition (in general, the relative decrease from the control value, in per cent) at 10 µg/mL on H^+ /K^+ ATPase is 80.8%.
In turn, `CCN1CCC2c3cc(C(O)c4c(CCc5ccccn5)c5ccccc5n4S(=O)(=O)c4ccc(C)cc4)ccc3N(CC)C2C1` (stereo not shown) [Example 40] showed an inhibition at 10 µg/mL on H^+ /K^+ ATPase of 24.4%.
`CCN1CCC2c3cc(C4CCCN(C(=O)OCc5ccccc5)CCc5c4[nH]c4ccccc54)ccc3N(CC)C2C1` (stereo not shown) [Example 11, 6-(3-Benzyloxycarbonyl-1,2,4,5,6,7-hexahydro-3H-azonino[5,4-b]indole-7-yl)-2,9-diethyl-1,2,3,4,4a,9a-hexahydropyrido[3,4-b]indole] returned an inhibition at 10 µg/mL at H^+ /K^+ ATPase of 97.5%.
Regarding `COc1ccc2[nH]c([S+]([O-])Cc3ncc(C)c(OC)c3C)nc2c1` (stereo not shown) [Omeprazole], the “occurrence of side effects” value in series [1] is listed as “occurrence of carcinoid”.
Take `CCN1CCC2c3cc(C(O)c4c(CCOCc5ccccc5)c5ccccc5n4Cc4ccccc4)ccc3N(CC)C2C1` (stereo not shown) [Example 39, 2,9-Diethyl-6-(3-(2-benzyloxyethyl)-1-benzyl-indole-2-yl)hydroxymethyl-1,2,3,4,4a,9a-hexahydro-pyrido[3,4-b]indole]: the inhibition at 10 µg/mL at H^+ /K^+ ATPase was determined as 78.8%.
As to `CCN1CCC2c3cc(C4Cc5ccccc5CN(C(=O)OCc5ccccc5)CCc5c4[nH]c4ccccc54)ccc3N(CC)C2C1` (stereo not shown) [Example 10, 6-(13-Benzyloxycarbonyl-6,7,12,13,14,15-hexahydrobenzo[h]azecino[5,4-b]indole-6-yl)-2,9-diethyl-1,2,3,4,4a,9a-hexahydro-pyrido[3,4-b]indole], on H^+ /K^+ ATPase (5 μg/ml), the inhibition at 5 µg/mL turned out to be 98.4%.
On H^+ /K^+ ATPase, `CCN1CCC2c3cc(C(C)c4[nH]c5ccccc5c4CCN(Cc4ccccc4)C(=O)OCc4ccccc4)ccc3N(CC)C2C1` (stereo not shown) [Example 19, 6-(1-(3-(2-Benzyl(benzyloxycarbonyl)aminoethyl)-indole-2-yl)ethyl)-2,9-diethyl-1,2,3,4,4a,9a-hexahydro-pyrido[3,4-b]indole] registered an inhibition at 10 µg/mL of 92.5%.
With `CCOC(=O)N1CCCCC(c2ccc3c(c2)C2CCN(CC)CC2N3CC)c2[nH]c3ccccc3c2CC1` (stereo not shown) [Example 4, 6-(3-Ethoxycarbonyl-1,2,3,4,5,6,7,8-octahydro-azecino[5,4-b]indole-8-yl)-2,9-diethyl-1,2,3,4,4a,9a-hexahydropyrido[3,4-b]indole], 20 µg/mL produced 84% inhibition against H^+ /K^+ ATPase (20 μg/ml).
On to `CCN1CCC2c3cc(C(OCc4ccccc4)c4c(CCN(Cc5ccccc5)Cc5ccccc5)c5ccccc5n4C)ccc3N(CC)C2C1` (stereo not shown) [Example 45, 6-(Benzyloxy-(3-(2-(N,N-dibenzylamino)ethyl)-1-methylindole-2-yl)-methyl)-2,9-diethyl-1,2,3,4,4a,9a-hexahydropyrido[3,4-b]indole], for which the inhibition at 10 µg/mL at H^+ /K^+ ATPase worked out at 65.7%.
On H^+ /K^+ ATPase, `CN1CC[C@H]2c3cc(C4CCCN(C(=O)OCc5ccccc5)CCc5c4[nH]c4ccccc54)ccc3N(C)[C@H]2C1` (stereo partly drawn) [Example 1, 4a,9a-cis-6-(3-Benzyloxycarbonyl-1,2,4,5,6,7-hexahydro-3H-azonino[5,4-b]indole-7-yl)-2,9-dimethyl-1,2,3,4,4a,9a-hexahydro-pyrido[3,4-b]indole] showed an inhibition at 10 µg/mL of 54.9%.
